Experimental data: patent publication EP2794556B1, “BIS-(ARYL/HETEROARYL)-METHYLENE COMPOUNDS, PHARMACEUTICAL COMPOSITIONS CONTAINING SAME AND THEIR USE FOR TREATING CANCER” (Gleason, James L., priority 2011, dated 2013)

Experiments:
UACC-257 = experiment: NCI 60 cell panel
SF-268 = experiment: NCI 60 cell panel
ACHN = experiment: NCI 60 cell panel
RPMI-8226 = experiment: NCI 60 cell panel
SW-620 = experiment: NCI 60 cell panel
HOP-62 = experiment: NCI 60 cell panel
SCC25 cells = experiment: EdU cell growth assay
Protocol: EdU cell growth assay. Click-iT EdU Alexa Fluor high-throughput imaging (HCS) assay for cell proliferation. HCS assays were performed on AT84 mouse squamous carcinoma cell line (ATCC) following the manufacturer's instruction (Molecular Probes, Invitrogen). […] All samples were in triplicate.

[1] = test system: 60 cell panel of human carcinoma cell lines; experiment: NCI 60 cell panel, summary in text; assay type: cell-based
VDR = target: T1, VDR (Homo sapiens, UniProt P11473); experiment: VDR agonism by induction of CYP24 gene expression (RT/PCR); assay type: cell-based
T1 construct: endogenous in cells; host or cells: SCC25 human head and neck squamous carcinoma cells
T1 sequence (P11473 1-427): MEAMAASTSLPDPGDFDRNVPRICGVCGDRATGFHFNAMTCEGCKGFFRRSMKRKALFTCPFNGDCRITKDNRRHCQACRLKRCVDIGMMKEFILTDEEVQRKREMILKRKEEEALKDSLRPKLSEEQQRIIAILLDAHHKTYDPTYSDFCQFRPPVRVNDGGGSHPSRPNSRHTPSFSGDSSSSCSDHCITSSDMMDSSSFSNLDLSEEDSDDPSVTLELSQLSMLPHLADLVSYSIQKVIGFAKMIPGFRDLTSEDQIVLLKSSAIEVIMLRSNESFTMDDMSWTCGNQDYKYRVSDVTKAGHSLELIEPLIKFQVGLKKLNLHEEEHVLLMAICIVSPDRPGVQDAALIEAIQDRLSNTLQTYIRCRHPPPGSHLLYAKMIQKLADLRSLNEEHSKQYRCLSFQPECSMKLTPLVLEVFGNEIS
Protocol: Cell culture. Human head and neck squamous carcinoma cell lines SCC4 and SCC45 and mouse HNSCC line AT84 were purchased from American Type Culture Collection (Manassas, VA) and cultured under recommended conditions. Cells were split at 60-70% confluence, as follows: cells were washed with filtered PBS, split with a 5-10 min incubation with 1 ml Trypsin-EDTA (Invitrogen, Carlsbad, CA) in PBS, collected with medium. Following centrifugation, the supernatant was removed. Cell pellets were resuspended with DMEM-F12, and distributed on fresh media-containing dishes. For treatments, AT84 cells were split and 24h later medium was changed to DMEM + 10% charcoal-stripped FBS.
RNA isolation and RT/PCR analysis. […]. Proc. Nat. Acad. Sci. U.S.A. 105, 8250-55. and Lamblin, M.et al Bioorganic & Medicinal Chemistry (2010) 18:4119-4137. After treatment, cells were washed with PBS, homogenized with 1ml TRIzol Reagent (Invitrogen, Carlsbad, CA), kept at room temperature for 2-5 min, collected and kept at -80 °C for at least 1h. After, thawing 0.2 ml chloroform was added. After vigorous mixing and storing for 10min, mixtures were centrifuged (10,000rpm, 15 min, 4 °C) and the upper transparent layer was transferred to a new tube. 0.5 ml isopropanol was added and the new solution was mixed. After centrifuging at 4 °C, the supernatant was discarded and 1ml of 75% ethanol was added. After centrifuging and discarding the supernatant, the pellet was air-dried for 5-10 min, and then dissolved in ddH2O. RNA concentrations were measured using a spectrophotometer, and 1-3µg of RNA were loaded for reverse transcriptase reactions (total volume: 20 µl). 80µl of ddH2O was added to the RT-product, and 1.5µl of that was used as template for the PCR reaction. Reverse transcriptase (Super Script II) was purchased from Invitrogen (Carlsbad, CA). DNA polymerase and dNTP's were ordered from Fermentas (Glen Burnie, MD).
Test compounds (10 µM) were first screened for VDR agonism by analysis of induction of CYP24 gene expression in 1,25D-sensitive human SCC25 cells. […]. Consistent with binding to the VDR, induction of CYP24 by compound JF-B01, compound JF-B53 or compound 16 (JF-B54) was blocked (Fig. 1c). […]

NCI-H322M = experiment: NCI 60 cell panel
HL-60(TB) = experiment: NCI 60 cell panel
MDA-MB-231/ATCC = experiment: NCI 60 cell panel
SK-OV-3 = experiment: NCI 60 cell panel
A549/A/TCC = experiment: NCI 60 cell panel
COLO 205 = experiment: NCI 60 cell panel
RXF 393 = experiment: NCI 60 cell panel
786-0 = experiment: NCI 60 cell panel

CCC(CC)(c1ccc(OCC(=O)NO)c(C)c1)c1ccc(OCC(O)C(C)(C)C)c(C)c1 (racemic) [JF-B01, N-Hydroxy-2-(4-(3-(4-(2-hydroxy-3,3-dimethylbutoxy)-3-methylphenyl)pentan-3-yl)-2-methylphenoxy)acetamide]
GI50 (UACC-257; Homo sapiens, UACC-257): 3.34 µM
CC50 (UACC-257; Homo sapiens, UACC-257, read-out: LC50): 38.8 µM
TGI (UACC-257; Melanoma, UACC-257): 1.27E-5
TGI (SF-268; CNS Cancer, SF-268): 1.06E-5
GI50 (SF-268; Homo sapiens, SF-268): 2260 nM
CC50 (SF-268; Homo sapiens, SF-268, read-out: LC50): 34.6 µM
GI50 (ACHN; Homo sapiens): 3.2 µM
CC50 (ACHN; Homo sapiens, read-out: LC50): 35.6 µM
TGI (ACHN; Renal Cancer): 1.27E-5
GI50 (RPMI-8226; Homo sapiens, RPMI-8226): 1120 nM
CC50 (RPMI-8226; Homo sapiens, RPMI-8226, read-out: LC50): 82.5 µM
TGI (RPMI-8226; Leukemia, RPMI-8226): 8.68E-6
TGI (SW-620; Colon Cancer, SW-620): 1.25E-5
GI50 (SW-620; Homo sapiens, SW-620): 2300 nM
CC50 (SW-620; Homo sapiens, SW-620, read-out: LC50): 35.4 µM
GI50 (HOP-62; Homo sapiens, HOP-62): 3.69 µM
CC50 (HOP-62; Homo sapiens, HOP-62, read-out: LC50): 38.3 µM
TGI (HOP-62; Non-Small Cell Lung Cancer, HOP-62): 1.47E-5
antiproliferative potency, fold less potent than 1,25D (SCC25 cells): 10 fold
EdU incorporation at higher concentrations (SCC25 cells; higher concentrations): completely abolished EdU incorporation
antiproliferative activity ([1]; all cell lines of the panel): antiproliferative activity in all cell lines
full growth inhibition ([1]; melanoma cell lines, 8 out of 9 cell lines): ≤ 7 µM
induction of CYP24 by the compound was blocked (VDR; Fig. 1c, blocking agent not given): blocked
VDR agonist potency compared with that of LG190178 (VDR; SCC25 cells, Fig. 1b): equal to or greater
VDR agonist potency, fold lower than that of 1,25D (VDR; SCC25 cells, Fig. 1b): approximately 10 fold
VDR agonist activity and potency, induction of CYP24 gene expression (VDR; SCC25 cells, Fig. 1b, 1d): efficacious agonist
VDR agonism by induction of CYP24 gene expression (VDR; screen at 10 µM, SCC25 cells, Fig. 1a): agonist activity
GI50 (NCI-H322M; Homo sapiens): 2860 nM
CC50 (NCI-H322M; Homo sapiens, read-out: LC50): 33 µM
TGI (NCI-H322M; Non-Small Cell Lung Cancer): 1.08E-5
GI50 (HL-60(TB); Homo sapiens, HL-60): 944 nM
CC50 (HL-60(TB); Homo sapiens, HL-60, read-out: LC50): 8.8 µM
TGI (HL-60(TB); Leukemia, HL-60(TB)): 2.93E-6
TGI (MDA-MB-231/ATCC; Breast Cancer, MDA-MB-231/ATCC): 8.45E-6
GI50 (MDA-MB-231/ATCC; Homo sapiens, MDA-MB-231): 2180 nM
CC50 (MDA-MB-231/ATCC; Homo sapiens, MDA-MB-231, read-out: LC50): 31.6 µM
GI50 (SK-OV-3; Homo sapiens, SK-OV-3): 12.2 µM
CC50 (SK-OV-3; Homo sapiens, SK-OV-3, read-out: LC50): 49.6 µM
TGI (SK-OV-3; Ovarian Cancer, SK-OV-3): 2.46E-5
GI50 (A549/A/TCC; Homo sapiens, A549): 3.62 µM
CC50 (A549/A/TCC; Homo sapiens, A549, read-out: LC50): 40.8 µM
TGI (A549/A/TCC; Non-Small Cell Lung Cancer, A549/A/TCC): 1.43E-5
TGI (COLO 205; Colon Cancer, COLO 205): 5.94E-6
GI50 (COLO 205; Homo sapiens, COLO 205): 2330 nM
CC50 (COLO 205; Homo sapiens, COLO 205, read-out: LC50): 20.3 µM
GI50 (RXF 393; Homo sapiens, RXF 393): 5.34 µM
CC50 (RXF 393; Homo sapiens, RXF 393, read-out: LC50): 47.5 µM
TGI (RXF 393; Renal Cancer, RXF 393): 1.91E-5
GI50 (786-0; Homo sapiens, 786-0): 11.3 µM
CC50 (786-0; Homo sapiens, 786-0, read-out: LC50): 51.3 µM
TGI (786-0; Renal Cancer, 786-0): 2.41E-5
